Measured values: ChEMBL document CHEMBL4311992, “Discovery of 3-(((9H-purin-6-yl)amino)methyl)-4,6-dimethylpyridin-2(1H)-one derivatives as novel tubulin polymerization inhibitors for treatment of cancer” (Eur J Med Chem, 2019)
Active and inactive are the calls of the source. The calls are words filed in the database; no cut-off is given here.

Columns and labels:
[1] = molecular target: Tyrosine-protein kinase ITK/TSK (Homo sapiens) (UniProt Q08881); assay: Inhibition of recombinant human ITK (352 to 617 residues) assessed as residual activity at 10 uM using myelin basic protein as substrate measured after 40 mins in presence of [gamma33P]ATP by scintillation counting method
[2] = molecular target: SRSF protein kinase 2 (Homo sapiens) (UniProt P78362); assay: Inhibition of human SRPK2 (46 to end residues) using RSRSRSRSRSRSRSR as substrate measured after 40 mins in presence of [gamma33P]ATP by scintillation counting method; parameters: scale not given: the % may be the effect or the level left
DLD-1 = assay: Antiproliferative activity against human DLD1 cells assessed as reduction in cell viability after 72 hrs by MTT assay; assay type: functional, cell-based; conditions: DLD-1, 72 h
HCT-116 [3] = assay: Induction of apoptosis in human HCT116 cells assessed as necrotic cells at 100 nM measured after 48 hrs by Annexin V-FITC/propidium iodide staining-based flow cytometry (reference value: 1.16%); assay type: functional
[4] = system: Serine/threonine-protein kinase Sgk2 (Homo sapiens), Q9HBY8 [S416D]; assay: Inhibition of recombinant human SGK2 S416D mutant (54 to end residues) assessed as residual activity at 10 uM using GRPRTSSFAEGKK as substrate measured after 40 mins in presence of [gamma33P]ATP by scintillation counting method
Chain of Serine/threonine-protein kinase Sgk2 (Homo sapiens), Q9HBY8 [S416D] (Q9HBY8 1-367 with tags or gaps S416D): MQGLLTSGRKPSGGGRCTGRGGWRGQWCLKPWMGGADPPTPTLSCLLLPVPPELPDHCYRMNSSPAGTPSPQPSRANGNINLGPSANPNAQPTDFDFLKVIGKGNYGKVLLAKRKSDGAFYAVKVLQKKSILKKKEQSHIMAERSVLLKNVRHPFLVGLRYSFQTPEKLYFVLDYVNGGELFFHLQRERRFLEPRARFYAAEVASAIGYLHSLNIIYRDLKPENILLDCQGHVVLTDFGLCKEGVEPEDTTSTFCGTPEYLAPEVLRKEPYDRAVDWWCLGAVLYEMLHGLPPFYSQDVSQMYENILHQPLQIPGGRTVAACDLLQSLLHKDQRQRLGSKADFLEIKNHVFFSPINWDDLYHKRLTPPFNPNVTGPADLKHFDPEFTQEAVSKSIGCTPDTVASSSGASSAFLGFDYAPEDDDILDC

[5] = molecular target: Serine/threonine-protein kinase Nek9 (Homo sapiens) (UniProt Q8TD19); assay: Inhibition of recombinant human NEK9 (1 to 324 residues) assessed as residual activity at 10 uM using myelin basic protein as substrate measured after 40 mins in presence of [gamma33P]ATP by scintillation counting method
[6] = molecular target: Serine/threonine-protein kinase 35 (Homo sapiens) (UniProt Q8TDR2); assay: Inhibition of recombinant full length human CLIK1 assessed as residual activity at 10 uM using RSRSRSRSRSRSRSR as substrate measured after 40 mins in presence of [gamma33P]ATP by scintillation counting method
[7] = molecular target: Serine/threonine-protein kinase Chk1 (Homo sapiens) (UniProt O14757); assay: Inhibition of recombinant full length human CHK1 assessed as residual activity at 10 uM using KKKVSRSGLYRSPSMPENLNRPR as substrate measured after 40 mins in presence of [gamma33P]ATP by scintillation counting method
[8] = molecular target: Mitogen-activated protein kinase kinase kinase 10 (Homo sapiens) (UniProt Q02779); assay: Inhibition of recombinant human MLK2 (1 to 449 residues) assessed as residual activity at 10 uM using myelin basic protein as substrate measured after 40 mins in presence of [gamma33P]ATP by scintillation counting method
Chain of Mitogen-activated protein kinase kinase kinase 10 (Homo sapiens) (Q02779 whole entry, looked up, the tested form may be a part): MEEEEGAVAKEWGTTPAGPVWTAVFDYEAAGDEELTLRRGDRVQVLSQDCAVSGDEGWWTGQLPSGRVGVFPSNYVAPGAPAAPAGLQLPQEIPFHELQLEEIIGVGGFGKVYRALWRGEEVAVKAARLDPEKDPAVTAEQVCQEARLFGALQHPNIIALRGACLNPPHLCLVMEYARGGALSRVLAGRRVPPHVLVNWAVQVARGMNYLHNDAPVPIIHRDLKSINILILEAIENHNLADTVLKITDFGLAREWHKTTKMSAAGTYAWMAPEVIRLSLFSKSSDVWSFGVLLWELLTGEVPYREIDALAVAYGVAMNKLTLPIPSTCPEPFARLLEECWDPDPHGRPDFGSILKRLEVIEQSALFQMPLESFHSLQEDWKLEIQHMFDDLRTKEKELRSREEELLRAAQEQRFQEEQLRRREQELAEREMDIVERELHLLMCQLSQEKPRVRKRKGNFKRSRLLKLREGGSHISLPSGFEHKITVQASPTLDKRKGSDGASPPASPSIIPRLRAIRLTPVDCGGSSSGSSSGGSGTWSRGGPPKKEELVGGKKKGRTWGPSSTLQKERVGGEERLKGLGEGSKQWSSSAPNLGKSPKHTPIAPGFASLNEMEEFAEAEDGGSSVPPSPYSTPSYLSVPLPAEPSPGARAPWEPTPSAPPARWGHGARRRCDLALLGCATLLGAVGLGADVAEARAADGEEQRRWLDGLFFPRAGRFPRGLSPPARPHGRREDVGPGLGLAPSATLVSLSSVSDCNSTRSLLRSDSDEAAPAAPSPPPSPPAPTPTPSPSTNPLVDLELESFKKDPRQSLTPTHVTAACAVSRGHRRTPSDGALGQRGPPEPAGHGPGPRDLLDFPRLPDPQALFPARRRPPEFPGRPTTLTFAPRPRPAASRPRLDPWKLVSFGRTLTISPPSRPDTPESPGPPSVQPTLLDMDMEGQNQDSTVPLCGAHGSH

[9] = molecular target: Cyclin-dependent kinase-like 4 (Homo sapiens) (UniProt Q5MAI5); assay: Inhibition of human CDKL4 assessed as residual activity at 10 uM by radiometric method
Chain of Cyclin-dependent kinase-like 4 (Homo sapiens) (Q5MAI5 whole entry): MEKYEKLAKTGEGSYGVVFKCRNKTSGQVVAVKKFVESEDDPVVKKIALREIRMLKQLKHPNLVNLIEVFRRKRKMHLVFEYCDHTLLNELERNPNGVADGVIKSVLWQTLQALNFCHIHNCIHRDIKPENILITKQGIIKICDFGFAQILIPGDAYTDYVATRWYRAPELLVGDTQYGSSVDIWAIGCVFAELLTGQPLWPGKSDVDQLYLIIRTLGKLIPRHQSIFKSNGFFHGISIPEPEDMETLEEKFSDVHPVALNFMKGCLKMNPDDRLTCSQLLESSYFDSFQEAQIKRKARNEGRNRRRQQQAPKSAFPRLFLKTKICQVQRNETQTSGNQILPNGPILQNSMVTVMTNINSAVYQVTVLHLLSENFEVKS

[10] = molecular target: Serine/threonine-protein kinase tousled-like 2 (Homo sapiens) (UniProt Q86UE8); assay: Inhibition of human TLK2 (387 to end residues) using casein as substrate measured after 40 mins in presence of [gamma33P]ATP by scintillation counting method; parameters: scale not given: the % may be the effect or the level left
Chain of Serine/threonine-protein kinase tousled-like 2 (Homo sapiens) (Q86UE8 whole entry, looked up, the tested form may be a part): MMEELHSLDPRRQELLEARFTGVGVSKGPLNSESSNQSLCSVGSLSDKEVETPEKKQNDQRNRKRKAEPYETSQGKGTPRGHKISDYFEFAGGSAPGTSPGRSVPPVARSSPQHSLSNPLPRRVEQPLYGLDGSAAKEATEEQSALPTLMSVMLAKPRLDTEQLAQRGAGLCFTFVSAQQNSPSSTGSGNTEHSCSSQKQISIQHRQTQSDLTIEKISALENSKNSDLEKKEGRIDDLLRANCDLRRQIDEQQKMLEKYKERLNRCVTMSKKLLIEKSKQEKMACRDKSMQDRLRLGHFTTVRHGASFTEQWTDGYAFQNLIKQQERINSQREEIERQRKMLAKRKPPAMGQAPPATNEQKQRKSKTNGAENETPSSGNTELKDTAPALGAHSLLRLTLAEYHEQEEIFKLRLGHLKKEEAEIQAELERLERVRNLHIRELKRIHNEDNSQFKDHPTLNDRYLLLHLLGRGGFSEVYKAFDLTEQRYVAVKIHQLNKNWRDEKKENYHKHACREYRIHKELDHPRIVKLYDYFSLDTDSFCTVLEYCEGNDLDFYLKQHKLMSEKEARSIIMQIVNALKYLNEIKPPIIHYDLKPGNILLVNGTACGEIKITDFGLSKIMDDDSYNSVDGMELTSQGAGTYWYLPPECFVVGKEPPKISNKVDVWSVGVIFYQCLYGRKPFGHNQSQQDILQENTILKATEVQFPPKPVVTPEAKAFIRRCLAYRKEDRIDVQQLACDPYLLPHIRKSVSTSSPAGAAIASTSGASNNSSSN

[11] = molecular target: Fibroblast growth factor receptor 1 (Homo sapiens) (UniProt P11362); assay: Inhibition of recombinant human FGFR1 (456 to 765 residues) assessed as residual activity at 10 uM using KKKSPGEYVNIEFG as substrate measured after 40 mins in presence of [gamma33P]ATP by scintillation counting method
HCT-116 [12] = assay: Induction of apoptosis in human HCT116 cells assessed as increase in cleaved PARP expression up to 200 nM measured after 48 hrs by Western blot analysis; assay type: functional, cell-based
[13] = molecular target: Wee1-like protein kinase 2 (Homo sapiens) (UniProt P0C1S8); assay: Inhibition of recombinant full-length human WEE1b assessed as residual activity at 10 uM using LSNLYHQGKFLQTFCGSPLYRRR as substrate measured after 120 mins in presence of [gamma33P]ATP by scintillation counting method
[14] = molecular target: Cyclin-dependent kinase 1/cyclin B1 (Homo sapiens) (UniProt P06493+P14635); assay: Inhibition of recombinant full-length human CDK1/cyclinB assessed as residual activity at 10 uM using histone H1 as substrate measured after 40 mins in presence of [gamma33P]ATP by scintillation counting method; assay type: protein-complex assay
[15] = molecular target: Cyclin-dependent kinase 2/cyclin E1 (Homo sapiens) (UniProt P24864+P24941); assay: Inhibition of recombinant full-length human CDK2/cyclinE assessed as residual activity at 10 uM using histone H1 as substrate measured after 40 mins in presence of [gamma33P]ATP by scintillation counting method; assay type: protein-complex assay
HCT-116 [16] = assay: Induction of apoptosis in human HCT116 cells assessed as necrotic cells at 25 nM measured after 48 hrs by Annexin V-FITC/propidium iodide staining-based flow cytometry (reference value: 1.16%); assay type: functional
[17] = molecular target: CDK6/cyclin D3 (Homo sapiens) (UniProt P30281+Q00534); assay: Inhibition of recombinant full-length human CDK6/cyclin D3 assessed as residual activity at 10 uM using histone H1 as substrate measured after 40 mins in presence of [gamma33P]ATP by scintillation counting method; assay type: protein-complex assay
[18] = molecular target: Glycogen synthase kinase-3 alpha (Homo sapiens) (UniProt P49840); assay: Inhibition of recombinant human GSK3alpha (2 to end residues) assessed as residual activity at 10 uM using phospho GS2 peptide as substrate measured after 40 mins in presence of [gamma33P]ATP by scintillation counting method
SW-620 = assay: Induction of apoptosis in human SW620 cells assessed as increase in Bax expression up to 200 nM measured after 48 hrs by Western blot analysis; assay type: functional, cell-based
[19] = molecular target: Cyclin-dependent kinase 5/CDK5 activator 1 (Homo sapiens) (UniProt Q00535+Q15078); assay: Inhibition of recombinant full-length human CDK5/p35 assessed as residual activity at 10 uM using histone H1 as substrate measured after 40 mins in presence of [gamma33P]ATP by scintillation counting method; assay type: protein-complex assay
Chain of Cyclin-dependent kinase 5/CDK5 activator 1 (Homo sapiens) (Q00535 whole entry): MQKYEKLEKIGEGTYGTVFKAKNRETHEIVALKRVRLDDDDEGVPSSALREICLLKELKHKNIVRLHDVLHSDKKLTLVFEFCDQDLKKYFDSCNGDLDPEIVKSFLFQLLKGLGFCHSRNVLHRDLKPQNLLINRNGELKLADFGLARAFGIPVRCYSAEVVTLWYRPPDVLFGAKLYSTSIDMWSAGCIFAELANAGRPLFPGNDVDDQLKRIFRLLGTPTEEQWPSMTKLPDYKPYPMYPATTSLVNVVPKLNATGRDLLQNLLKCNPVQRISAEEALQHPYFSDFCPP
Chain of Cyclin-dependent kinase 5/CDK5 activator 1 (Homo sapiens) (Q15078 99-307 partner limits assumed): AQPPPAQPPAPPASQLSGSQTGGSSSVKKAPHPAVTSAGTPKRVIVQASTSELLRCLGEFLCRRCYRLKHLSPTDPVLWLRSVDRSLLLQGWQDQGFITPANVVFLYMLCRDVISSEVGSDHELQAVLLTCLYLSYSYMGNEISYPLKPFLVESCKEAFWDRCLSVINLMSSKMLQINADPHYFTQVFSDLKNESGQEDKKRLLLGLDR

[20] = molecular target: Serine/threonine-protein kinase 32C (Homo sapiens) (UniProt Q86UX6); assay: Inhibition of recombinant full-length human STK32C assessed as residual activity at 10 uM using casein as substrate measured after 120 mins in presence of [gamma33P]ATP by scintillation counting method
Chain of Serine/threonine-protein kinase 32C (Homo sapiens) (Q86UX6 whole entry, the tested form may be a part): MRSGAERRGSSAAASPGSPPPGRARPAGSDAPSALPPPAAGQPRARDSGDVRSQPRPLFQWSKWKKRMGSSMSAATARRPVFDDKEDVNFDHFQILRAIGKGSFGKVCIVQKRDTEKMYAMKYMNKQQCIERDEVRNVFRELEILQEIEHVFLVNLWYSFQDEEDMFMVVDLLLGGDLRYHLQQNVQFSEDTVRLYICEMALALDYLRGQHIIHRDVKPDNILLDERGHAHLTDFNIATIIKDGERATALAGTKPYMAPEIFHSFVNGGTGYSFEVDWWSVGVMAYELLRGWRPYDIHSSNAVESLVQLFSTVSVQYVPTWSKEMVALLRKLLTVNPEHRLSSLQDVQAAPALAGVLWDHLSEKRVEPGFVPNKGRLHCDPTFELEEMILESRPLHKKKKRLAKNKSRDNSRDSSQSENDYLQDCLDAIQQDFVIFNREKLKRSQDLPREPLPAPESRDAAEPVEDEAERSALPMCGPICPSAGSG

[21] = molecular target: Serine/threonine-protein kinase ULK2 (Homo sapiens) (UniProt Q8IYT8); assay: Inhibition of human ULK2 (1 to 306 residues) using casein as substrate measured after 40 mins in presence of [gamma33P]ATP by scintillation counting method; parameters: scale not given: the % may be the effect or the level left
[22] = molecular target: Serine/threonine-protein kinase 26 (Homo sapiens) (UniProt Q9P289); assay: Inhibition of recombinant human MST4 (4 to 304 residues) assessed as residual activity at 10 uM using RLGRDKYKTLRQIRQ as substrate measured after 40 mins in presence of [gamma33P]ATP by scintillation counting method
[23] = molecular target: BMP-2-inducible protein kinase (Homo sapiens) (UniProt Q9NSY1); assay: Inhibition of recombinant human BIKepsilon assessed as residual activity at 10 uM using peptide substrate measured after 120 mins in presence of [gamma33P]ATP by scintillation counting method
Chain of BMP-2-inducible protein kinase (Homo sapiens) (Q9NSY1 whole entry, looked up): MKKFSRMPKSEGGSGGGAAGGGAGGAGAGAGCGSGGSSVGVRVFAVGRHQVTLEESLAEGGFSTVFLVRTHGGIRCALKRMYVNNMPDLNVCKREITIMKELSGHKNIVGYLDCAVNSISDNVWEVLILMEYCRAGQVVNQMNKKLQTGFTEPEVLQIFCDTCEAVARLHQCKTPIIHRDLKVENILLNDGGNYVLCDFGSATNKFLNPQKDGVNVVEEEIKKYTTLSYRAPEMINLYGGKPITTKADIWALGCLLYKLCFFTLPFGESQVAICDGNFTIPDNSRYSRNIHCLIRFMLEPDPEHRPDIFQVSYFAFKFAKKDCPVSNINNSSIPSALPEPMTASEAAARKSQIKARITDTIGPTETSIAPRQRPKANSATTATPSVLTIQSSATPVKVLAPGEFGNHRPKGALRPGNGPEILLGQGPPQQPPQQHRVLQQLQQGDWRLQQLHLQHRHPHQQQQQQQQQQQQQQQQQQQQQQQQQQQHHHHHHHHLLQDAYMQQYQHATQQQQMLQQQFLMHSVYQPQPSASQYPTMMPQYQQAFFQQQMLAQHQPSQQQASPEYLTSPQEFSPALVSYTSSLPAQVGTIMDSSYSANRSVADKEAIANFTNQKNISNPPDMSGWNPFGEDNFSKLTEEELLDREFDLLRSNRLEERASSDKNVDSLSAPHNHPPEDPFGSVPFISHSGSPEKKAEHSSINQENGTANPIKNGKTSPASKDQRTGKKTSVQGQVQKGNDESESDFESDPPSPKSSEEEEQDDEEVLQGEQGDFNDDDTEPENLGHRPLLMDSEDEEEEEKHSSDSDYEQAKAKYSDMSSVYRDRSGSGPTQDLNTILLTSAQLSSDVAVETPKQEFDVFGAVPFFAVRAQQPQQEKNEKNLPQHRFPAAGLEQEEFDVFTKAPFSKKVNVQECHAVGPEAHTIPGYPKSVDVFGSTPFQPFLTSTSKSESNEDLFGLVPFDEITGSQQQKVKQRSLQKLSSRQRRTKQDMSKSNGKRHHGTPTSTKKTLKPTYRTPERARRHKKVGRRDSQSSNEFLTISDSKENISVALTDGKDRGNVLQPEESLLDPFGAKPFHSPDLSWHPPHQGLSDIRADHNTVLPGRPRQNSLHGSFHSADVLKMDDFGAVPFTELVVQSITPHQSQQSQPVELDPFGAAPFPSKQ

`Cc1cc(C)c(CNc2nc(Cl)nc3c2ncn3C2CCCC2)c(=O)[nH]1` was tested, and the Activity [1] was 63 to 75%, the Activity [2] was 106% and the IC50 (DLD-1) was 136 nM. The Activity (HCT-116 [3]) was 5.57%, the Activity [4] was 112% and the Activity [5] was 102%. The Activity [6] was 65.5%, the Activity [7] was 106% and the Activity [8] was 91%. The Activity [9] was 116%, the Activity [10] was 119% and the Activity [11] was 108%. For the same compound, the Activity (HCT-116 [12]) was “Active”, the Activity [13] was 95% and the Activity [14] was 102%. The Activity [15] was 115%, the Activity (HCT-116 [16]) was 0.846% and the Activity [17] was 98.5%. For the same compound, the Activity [18] was 102%, the Activity (SW-620) was “Active” and the Activity [19] was 108%. The Activity [20] was 97%, the Activity [21] was 103% and the Activity [22] was 132%. The Activity [23] was 83%.
